How the values were obtained:
Format in all cases: cell-based, human
HEK293 Akt2(−/−) cells [1] = assay: Glycolytic Stress Test (ECAR, Seahorse XFe24); conditions: DMOG 100 μM for 4 hours
Method: (§1) To monitor glycolysis in the cell lines, the Glycolysis Stress Test was performed using a XFe24 Extracellular Flux Analyzer (Agilent Technologies). HEK293 WT, MUL1(−/−) and Akt2(−/−) cells were seeded in triplicates on poly-lysine D-coated XFe24 microplates at a density of 60,000 cells per well in assay medium (XF DMEM pH 7.4 containing 2 mM glutamine and 1 mM sodium pyruvate without glucose) for one hour in a CO2-free incubator. Extracellular acidification rate (ECAR) was measured under basal conditions and again after sequential injections of glucose (10 mM) in port A, ATP synthase inhibitor oligomycin (1.5 μM) in port B, and the glycolysis inhibitor 2-deoxyglucose (2-DG) (300 mM) in port C. Basal glycolysis was assessed by recording three measurements, following the addition of each compound by a 3-2-3 mix/measurement cycle. Glycolysis is the ECAR after the addition of glucose. Glycolytic capacity is the increase in ECAR after the injection of oligomycin following glucose. Glycolytic reserve is the difference between glycolytic capacity and glycolysis. Data analysis was performed using Report Generators software for Glycolysis Stress Test (Agilent Technologies).

HEK293 WT cells = assay: Glycolytic Stress Test (ECAR, Seahorse XFe24); conditions: DMOG 100 μM for 4 hours
Method: as §1

HEK293 Akt2(−/−) cells [2] = assay: 13C-NMR isotopomer metabolic flux analysis ([U-13C]glucose, tcaCALC)
Method: For NMR analysis, approximately 20×10^6 HEK293 WT, MUL1(−/−), or Akt2(−/−) cells were grown to confluency following treatment with perifosine, or chetomin inhibitors as well as with the HIF-1α activator DMOG and DMSO was used as vehicle control. Freshly prepared [U-^13C]glucose tracer containing medium (glucose free DMEM with 10% dialyzed FBS and 15 mM [U-^13C]glucose) was added to the cells for 6 hours at 37° C. Cells were scraped from the plates, washed twice with cold PBS, and immediately snap frozen in liquid nitrogen (161).
Cell pellets were bead-homogenized in 1 ml acetonitrile:isopropanol:water (3:3:2, v:v:v), centrifuged at 10,000×g for 15 min at 4° C. and the supernatant removed and dried in a speedvac. Dried cell extracts of each sample were re-suspended in 0.5 ml of acetonitrile: water (1:1, v:v) solution, vortexed, and centrifuged for 15 min at 10,000×g at 4° C. The supernatant was transferred to a new tube and dried in a speedvac The dried extract of each cell pellet was re-suspended in phosphate buffer (prepared in Deuterium oxide (D2O)) for NMR analysis. […]
^1H-NMR spectra were collected on an 800 MHz NMR, equipped with a 5 mm TXI CryoProbe and Avance III console (Bruker Biospin), using TopSpin software (version 3.6.3). […] The conventional ^1H-decoupled ^13C-NMR spectra were acquired for each sample at 150.13 MHz, using a ^13C-optimized 1.5 mm high temperature superconducting (HTS) probe on an Agilent NMR system with the magnetic field strength of 14 tesla. ^13C-NMR spectra were recorded using an acquisition time (AQ) of 1.5 sec, relaxation delay (dl) of 1.5 sec, flip angle of 45°, acquired size (TD) of 54 k with the spectral width of 250 ppm (Ramaswamy et al., 2013). […]
The positional ^13C-isotopomer distribution pattern of glutamate was determined by ^13C-NMR. ^13C-NMR resonances of various isotopomers of glutamate are identified from the ^13C-^13C J-coupling constants and quantified by line fitting to the glutamate resonances at C2, C3, C4, and C5 positions. […]

HEK293 MUL1(−/−) cells [3] = assay: Glycolytic Stress Test (ECAR, Seahorse XFe24); conditions: 2.5 μM perifosine or 500 nM chetomin for 4 hours
Method: as §1

HEK293 MUL1(−/−) cells [4] = assay: Mitochondrial Stress Test (OCR, Seahorse XFe24); conditions: for oxygen consumption rate (OCR): HEK293 MUL1(−/−) cells, 2.5 μM perifosine or 500 nM chetomin for 4 hours; for mitochondrial respiration: at the concentration used (2.5 μM perifosine, 500 nM chetomin, 4 hours)
Method: Mitochondrial stress assay was performed using an XFe24 Extracellular Flux Analyzer (Agilent Technologies) following the workflow provided by the manufacturer's instructions. Briefly, for Oxygen Consumption Rate (OCR) measurements, HEK293 WT and MUL1(−/−) cells were seeded in triplicates on poly-lysine D-coated XF24 microplates at a density of approximately 60,000 cells per well in assay medium (XF DMEM medium pH 7.4 supplemented with 10 mM glucose, 2 mM glutamine, and 1 mM pyruvate), followed by incubation at 37° C. in CO2-free incubator for 60 minutes. Three baseline measurements were recorded before the injection of the following compounds: 1.5 μM of oligomycin in port A, 1.0 μM of FCCP in port B and 0.5 μM rotenone/antimycin in port C. Data analysis was performed using Cell Mito Stress Test Report Generators software (Agilent Technologies).

HIF-1α = assay: Western blot of HIF-1α target protein GLUT1; conditions: 500 nM chetomin for 4 hours
Method: (§2) Control (untreated) as well as cells treated with perifosine, chetomin or DMOG were lysed using a Triton X-100 based lysis buffer (1% Triton X-100, 10% glycerol, 150 mM NaCl, 20 mM Tris (pH 7.5), 2 mM EDTA) in the presence of protease inhibitors (Thermo Fisher Scientific). Approximately 40 μg of whole cell extract was resuspended in SDS sample buffer, boiled for 4 minutes, and analyzed by SDS-PAGE (12% or 15% gels), then transferred onto PVDF membranes (Genesee) using a semi-dry cell transfer blot (Bio-Rad). Nonfat dry milk (4%) or 5% BSA (for Akt2 and phospho-specific antibodies) in TBST buffer (25 mM Tris-HCl, pH 8.0, 125 mM NaCl, 0.1% Tween 20) were used to block nonspecific binding of the membrane. The membranes were incubated with the indicated primary antibodies: HIF-1α (Bioss Antibodies, 1:2,000), AKT (pan), Akt1, Akt2, Akt3, phospho-Akt-T308, phospho-GSK-3β-S9, ULK1 (Cell Signaling Technology 1:2,000), GLUT1, (ABclonal 1:2,000), MFN2, and β-actin (Santa Cruz Biotechnology, 1:3,000). MUL1 and UBXN7 rabbit polyclonal antibodies were homegrown and used at 1:5,000 dilution. Secondary peroxidase-conjugated goat anti-rabbit or goat anti-mouse antibodies (Jackson ImmunoResearch) were used at 1:10,000 dilution. The membrane was visualized by enhanced chemiluminescence (ECL) (Thermo Fisher Scientific).

Akt2 = assay: Western blot of Akt2 target P-GSK-3β S9; conditions: 2.5 μM perifosine for 4 hours
Method: as §2

Row | Compound | glycolysis and glycolytic capacity (HEK293 Akt2(−/−) cells [1]) | glycolysis and glycolytic capacity (HEK293 WT cells) | YPC flux (HEK293 Akt2(−/−) cells [2]; Akt2(−/−)+DMOG cells compared with HEK293 WT and MUL1(−/−) cells) | PK flux (HEK293 Akt2(−/−) cells [2]; Akt2(−/−)+DMOG cells compared with HEK293 WT cells) | PK, YPC, and YS fluxes (HEK293 Akt2(−/−) cells [2]; Akt2(−/−)+DMOG vs Akt2(−/−) cells, relative to citrate synthase flux of 1) | ECAR and glycolysis (glycolytic function) (HEK293 MUL1(−/−) cells [3]) | oxygen consumption rate (OCR) (HEK293 MUL1(−/−) cells [4]) | mitochondrial respiration (HEK293 MUL1(−/−) cells [4]) | expression of GLUT1 (HIF-1α) | Akt2 kinase activity (P-GSK-3β S9) (Akt2)
1 | COC(=O)CNC(=O)C(=O)OC [DMOG, dimethyloxalyglycine] | small but significant increase | unremarkable | elevated above WT, but fell short of reaching MUL1(−/−) levels | partially restored with DMOG, but did not reach the WT levels | significantly increased | – | – | – | – | –
2 | CN1C(=O)[C@]2(Cc3cn([C@]45C[C@@]67SS[C@@](CO)(C(=O)N6[C@H]4Nc4ccccc45)N(C)C7=O)c4ccccc34)SS[C@@]1(CO)C(=O)N2C [chetomin] | – | – | – | – | – | very potent inhibitor of the mitochondrial glycolytic function | further reduced | potent inhibitors of mitochondrial respiration | significantly reduces | –
3 | CCCCCCCCCCCCCCCCCCOP(=O)([O-])OC1CC[N+](C)(C)CC1 [perifosine] | – | – | – | – | – | reduced ECAR and glycolysis to a level lower than the one present in HEK293 WT cells | further reduced | potent inhibitors of mitochondrial respiration | – | inhibits
